These compounds were tested on MDA-MB-231 (assay: Cytotoxicity against human MDA-MB-231 cells assessed as effect on cell growth at 10 uM incubated for 48 hrs by sulforhodamine B assay). Conditions: mda-mb-231, 48 h.
Format: cell-based
For `COc1ccc(CN2C(=O)[C@@H]3C/C(=C\N(C)C)C(=O)N3C2N(C)C)c(OC)c1` (stereo not given in full), the Activity was “Non-Toxic”. With `O=C(NCCc1ccccc1)[C@@H]1CCC(=O)N1Cc1ccc(Br)cc1` the Activity was “Non-Toxic”. In the case of `CN(C)C(=O)[C@@H]1CCC(=O)N1`, the Activity is reported as “Non-Toxic”.

Each compound was assayed on SK-MEL-5 (assay: Cytotoxicity against human SK-MEL-5 cells assessed as effect on cell growth at 10 uM incubated for 48 hrs by sulforhodamine B assay). Conditions: sk-mel-5, 48 h.
Format: cell-based
With `COc1ccc(CN2C(=O)[C@@H]3C/C(=C\N(C)C)C(=O)N3C2N(C)C)c(OC)c1` (stereo not given in full) the Activity was “Non-Toxic”. With `O=C(NCCc1ccccc1)[C@@H]1CCC(=O)N1Cc1ccc(Br)cc1` the Activity was “Non-Toxic”. With `CN(C)C(=O)[C@@H]1CCC(=O)N1` the Activity was “Non-Toxic”.

Each compound was assayed on HOP-62 (assay: Cytotoxicity against human HOP62 cells assessed as effect on cell growth at 10 uM incubated for 48 hrs by sulforhodamine B assay). Conditions: hop-62, 48 h.
Format: cell-based
In the case of `COc1ccc(CN2C(=O)[C@@H]3C/C(=C\N(C)C)C(=O)N3C2N(C)C)c(OC)c1` (stereo not given in full), the Activity is reported as “Non-Toxic”. In the case of `O=C(NCCc1ccccc1)[C@@H]1CCC(=O)N1Cc1ccc(Br)cc1`, the Activity is reported as “Non-Toxic”. In the case of `CN(C)C(=O)[C@@H]1CCC(=O)N1`, the Activity is reported as “Non-Toxic”.

The compounds below were run on CCRF-CEM (assay: Cytotoxicity against human CCRF-CEM cells assessed as effect on cell growth at 10 uM incubated for 48 hrs by sulforhodamine B assay). Conditions: not given.
Format: cell-based
For `COc1ccc(CN2C(=O)[C@@H]3C/C(=C\N(C)C)C(=O)N3C2N(C)C)c(OC)c1` (stereo not given in full), the Activity was “Non-Toxic”. In the case of `O=C(NCCc1ccccc1)[C@@H]1CCC(=O)N1Cc1ccc(Br)cc1`, the Activity is reported as “Non-Toxic”. In the case of `CN(C)C(=O)[C@@H]1CCC(=O)N1`, the Activity is reported as “Non-Toxic”.

Each compound was assayed on OVCAR-4 (assay: Cytotoxicity against human OVCAR4 cells assessed as effect on cell growth at 10 uM incubated for 48 hrs by sulforhodamine B assay). Conditions: ovcar-4, 48 h.
Format: cell-based
In the case of `COc1ccc(CN2C(=O)[C@@H]3C/C(=C\N(C)C)C(=O)N3C2N(C)C)c(OC)c1` (stereo not given in full), the Activity is reported as “Non-Toxic”. `O=C(NCCc1ccccc1)[C@@H]1CCC(=O)N1Cc1ccc(Br)cc1` was tested, and the Activity was “Non-Toxic”. `CN(C)C(=O)[C@@H]1CCC(=O)N1` was tested, and the Activity was “Non-Toxic”.

Each compound was assayed on RXF 393 (assay: Cytotoxicity against human RXF393 cells assessed as effect on cell growth at 10 uM incubated for 48 hrs by sulforhodamine B assay). Conditions: rxf 393, 48 h.
Format: cell-based
`COc1ccc(CN2C(=O)[C@@H]3C/C(=C\N(C)C)C(=O)N3C2N(C)C)c(OC)c1` (stereo not given in full) was tested, and the Activity was “Non-Toxic”. For `O=C(NCCc1ccccc1)[C@@H]1CCC(=O)N1Cc1ccc(Br)cc1`, the Activity was “Non-Toxic”. For `CN(C)C(=O)[C@@H]1CCC(=O)N1`, the Activity was “Non-Toxic”.

These compounds were tested on K562 (assay: Cytotoxicity against human K562 cells assessed as effect on cell growth at 10 uM incubated for 48 hrs by sulforhodamine B assay). Conditions: k562, 48 h.
Format: cell-based
`COc1ccc(CN2C(=O)[C@@H]3C/C(=C\N(C)C)C(=O)N3C2N(C)C)c(OC)c1` (stereo not given in full) was tested, and the Activity was “Non-Toxic”. With `O=C(NCCc1ccccc1)[C@@H]1CCC(=O)N1Cc1ccc(Br)cc1` the Activity was “Non-Toxic”. In the case of `CN(C)C(=O)[C@@H]1CCC(=O)N1`, the Activity is reported as “Non-Toxic”.

The compounds below were run on CAKI-1 (assay: Growth inhibition of human Caki1 cells assessed as growth percentage at 10 uM incubated for 48 hrs by sulforhodamine B assay). Conditions: caki-1, 48 h.
Format: cell-based
For `COc1ccc(CN2C(=O)[C@@H]3C/C(=C\N(C)C)C(=O)N3C2N(C)C)c(OC)c1` (stereo not given in full), the Activity was “Non-Toxic”. For `O=C(NCCc1ccccc1)[C@@H]1CCC(=O)N1Cc1ccc(Br)cc1`, the Activity was “Non-Toxic”. In the case of `CN(C)C(=O)[C@@H]1CCC(=O)N1`, the Activity is reported as “Non-Toxic”.

Each compound was assayed on BT-549 (assay: Cytotoxicity against human BT549 cells assessed as effect on cell growth at 10 uM incubated for 48 hrs by sulforhodamine B assay). Conditions: bt-549, 48 h.
Format: cell-based
In the case of `COc1ccc(CN2C(=O)[C@@H]3C/C(=C\N(C)C)C(=O)N3C2N(C)C)c(OC)c1` (stereo not given in full), the Activity is reported as “Non-Toxic”. `O=C(NCCc1ccccc1)[C@@H]1CCC(=O)N1Cc1ccc(Br)cc1` was tested, and the Activity was “Non-Toxic”. For `CN(C)C(=O)[C@@H]1CCC(=O)N1`, the Activity was “Non-Toxic”.

What follows are compounds tested on OVCAR-3 (assay: Cytotoxicity against human OVCAR3 cells assessed as effect on cell growth at 10 uM incubated for 48 hrs by sulforhodamine B assay). Conditions: ovcar-3, 48 h.
Format: cell-based
`COc1ccc(CN2C(=O)[C@@H]3C/C(=C\N(C)C)C(=O)N3C2N(C)C)c(OC)c1` (stereo not given in full) was tested, and the Activity was “Non-Toxic”. In the case of `O=C(NCCc1ccccc1)[C@@H]1CCC(=O)N1Cc1ccc(Br)cc1`, the Activity is reported as “Non-Toxic”. `CN(C)C(=O)[C@@H]1CCC(=O)N1` was tested, and the Activity was “Non-Toxic”.

These compounds were tested on MDA-MB-435 (assay: Cytotoxicity against human MDA-MB-435 cells assessed as effect on cell growth at 10 uM incubated for 48 hrs by sulforhodamine B assay). Conditions: mda-mb-435, 48 h.
Format: cell-based
For `COc1ccc(CN2C(=O)[C@@H]3C/C(=C\N(C)C)C(=O)N3C2N(C)C)c(OC)c1` (stereo not given in full), the Activity was “Non-Toxic”. `O=C(NCCc1ccccc1)[C@@H]1CCC(=O)N1Cc1ccc(Br)cc1` was tested, and the Activity was “Non-Toxic”. `CN(C)C(=O)[C@@H]1CCC(=O)N1` was tested, and the Activity was “Non-Toxic”.

What follows are compounds tested on MCF7 (assay: Cytotoxicity against human MCF7 cells assessed as effect on cell growth at 10 uM incubated for 48 hrs by sulforhodamine B assay). Conditions: mcf7, 48 h.
Format: cell-based
`COc1ccc(CN2C(=O)[C@@H]3C/C(=C\N(C)C)C(=O)N3C2N(C)C)c(OC)c1` (stereo not given in full) was tested, and the Activity was “Non-Toxic”. In the case of `O=C(NCCc1ccccc1)[C@@H]1CCC(=O)N1Cc1ccc(Br)cc1`, the Activity is reported as “Non-Toxic”. For `CN(C)C(=O)[C@@H]1CCC(=O)N1`, the Activity was “Non-Toxic”.

Each compound was assayed on SK-MEL-2 (assay: Cytotoxicity against human SK-MEL-2 cells assessed as effect on cell growth at 10 uM incubated for 48 hrs by sulforhodamine B assay). Conditions: sk-mel-2, 48 h.
Format: cell-based
In the case of `COc1ccc(CN2C(=O)[C@@H]3C/C(=C\N(C)C)C(=O)N3C2N(C)C)c(OC)c1` (stereo not given in full), the Activity is reported as “Non-Toxic”. `O=C(NCCc1ccccc1)[C@@H]1CCC(=O)N1Cc1ccc(Br)cc1` was tested, and the Activity was “Non-Toxic”. In the case of `CN(C)C(=O)[C@@H]1CCC(=O)N1`, the Activity is reported as “Non-Toxic”.

Each compound was assayed on SF-268 (assay: Cytotoxicity against human SF268 cells assessed as effect on cell growth at 10 uM incubated for 48 hrs by sulforhodamine B assay). Conditions: sf-268, 48 h.
Format: cell-based
For `COc1ccc(CN2C(=O)[C@@H]3C/C(=C\N(C)C)C(=O)N3C2N(C)C)c(OC)c1` (stereo not given in full), the Activity was “Non-Toxic”. In the case of `O=C(NCCc1ccccc1)[C@@H]1CCC(=O)N1Cc1ccc(Br)cc1`, the Activity is reported as “Non-Toxic”. For `CN(C)C(=O)[C@@H]1CCC(=O)N1`, the Activity was “Non-Toxic”.

What follows are compounds tested on Hs-578T (assay: Cytotoxicity against human Hs 578T cells assessed as effect on cell growth at 10 uM incubated for 48 hrs by sulforhodamine B assay). Conditions: not given.
Format: cell-based
In the case of `COc1ccc(CN2C(=O)[C@@H]3C/C(=C\N(C)C)C(=O)N3C2N(C)C)c(OC)c1` (stereo not given in full), the Activity is reported as “Non-Toxic”. `O=C(NCCc1ccccc1)[C@@H]1CCC(=O)N1Cc1ccc(Br)cc1` was tested, and the Activity was “Non-Toxic”. With `CN(C)C(=O)[C@@H]1CCC(=O)N1` the Activity was “Non-Toxic”.

The compounds below were run on LOX IMVI (assay: Cytotoxicity against human LOXIMVI cells assessed as effect on cell growth at 10 uM incubated for 48 hrs by sulforhodamine B assay). Conditions: not given.
Format: cell-based
In the case of `COc1ccc(CN2C(=O)[C@@H]3C/C(=C\N(C)C)C(=O)N3C2N(C)C)c(OC)c1` (stereo not given in full), the Activity is reported as “Non-Toxic”. `O=C(NCCc1ccccc1)[C@@H]1CCC(=O)N1Cc1ccc(Br)cc1` was tested, and the Activity was “Non-Toxic”. With `CN(C)C(=O)[C@@H]1CCC(=O)N1` the Activity was “Non-Toxic”.

What follows are compounds tested on NCI-H226 (assay: Cytotoxicity against human NCI-H226 cells assessed as effect on cell growth at 10 uM incubated for 48 hrs by sulforhodamine B assay). Conditions: nci-h226, 48 h.
Format: cell-based
`COc1ccc(CN2C(=O)[C@@H]3C/C(=C\N(C)C)C(=O)N3C2N(C)C)c(OC)c1` (stereo not given in full) was tested, and the Activity was “Non-Toxic”. `O=C(NCCc1ccccc1)[C@@H]1CCC(=O)N1Cc1ccc(Br)cc1` was tested, and the Activity was “Non-Toxic”. For `CN(C)C(=O)[C@@H]1CCC(=O)N1`, the Activity was “Non-Toxic”.

The compounds below were run on SK-MEL-28 (assay: Cytotoxicity against human SK-MEL-28 cells assessed as effect on cell growth at 10 uM incubated for 48 hrs by sulforhodamine B assay). Conditions: sk-mel-28, 48 h.
Format: cell-based
With `COc1ccc(CN2C(=O)[C@@H]3C/C(=C\N(C)C)C(=O)N3C2N(C)C)c(OC)c1` (stereo not given in full) the Activity was “Non-Toxic”. For `O=C(NCCc1ccccc1)[C@@H]1CCC(=O)N1Cc1ccc(Br)cc1`, the Activity was “Non-Toxic”. For `CN(C)C(=O)[C@@H]1CCC(=O)N1`, the Activity was “Non-Toxic”.

Each compound was assayed on SN12C (assay: Cytotoxicity against human SN12C cells assessed as effect on cell growth at 10 uM incubated for 48 hrs by sulforhodamine B assay). Conditions: not given.
Format: cell-based
`COc1ccc(CN2C(=O)[C@@H]3C/C(=C\N(C)C)C(=O)N3C2N(C)C)c(OC)c1` (stereo not given in full) was tested, and the Activity was “Non-Toxic”. With `O=C(NCCc1ccccc1)[C@@H]1CCC(=O)N1Cc1ccc(Br)cc1` the Activity was “Non-Toxic”. With `CN(C)C(=O)[C@@H]1CCC(=O)N1` the Activity was “Non-Toxic”.

What follows are compounds tested on UACC-257 (assay: Cytotoxicity against human UACC257 cells assessed as effect on cell growth at 10 uM incubated for 48 hrs by sulforhodamine B assay). Conditions: uacc-257, 48 h.
Format: cell-based
For `COc1ccc(CN2C(=O)[C@@H]3C/C(=C\N(C)C)C(=O)N3C2N(C)C)c(OC)c1` (stereo not given in full), the Activity was “Non-Toxic”. For `O=C(NCCc1ccccc1)[C@@H]1CCC(=O)N1Cc1ccc(Br)cc1`, the Activity was “Non-Toxic”. For `CN(C)C(=O)[C@@H]1CCC(=O)N1`, the Activity was “Non-Toxic”.
